Test results reported in patent US10993976B2, “Medicament for treating uremia and proteinuria” (Shandong Zhonghai Pharmaceutical CO. LTD, priority 2016, dated 2021).

Tested on: patient who is suffering from CRF of renal insufficiency at decompensation stage
Assay: Clinical application of the medicament in treating uremia and proteinuria (Embodiment 7 test method)
Assay type: in vivo, human
Text: Patient selection: choose the patient who is suffering from CRF of renal insufficiency at decompensation stage (The content of SCr is within the range of 186-442 umol/L) to study. The primary disease is chronic glomerulonephritis (CGN) and nephrotic syndrome (NS), except CRF caused by renal arteriosclerosis, diabetic nephropathy and renal cysts.
These investigated patients were randomly divided into groups, 50 patients in each group, aged 19-66 years (mean 44.6±12.6 years), with a course of disease 12-46 months (mean 22.6±8.6 months).
Treatment group 1-6: The patients in embodiment 1-6 received the medicament mentioned of the invention, with a dose of 3 g/day, three times a day.
Control group: The patients received the oral administration of coated aldehyde oxystarch 5 g-10 g, twice a day.
All groups were treated with 1 month as a course of treatment.
The patients stopped using Chinese and western medicine 2 weeks before treatment. […] They were given high quality low protein, low phosphorus and high calorie diet, correction of water and electrolyte disorders and acidosis, and anti-infection, in order to remove those reversible factors that may cause temporary renal dysfunction. Lotensin 5-20 mg was given to the patients with hypertension, once a day, or/and nifedipine 10-20 mg, three or four times a day.
X2 test was used for enumeration data and t test was used for measurement data. […]

[1] = 50 patients per group, after 3 courses of treatment (1 month each), medicament 3 g/day
[2] = patients, after 3 courses of treatment

## coated aldehyde oxystarch [Contrast]
50 patients per group, after 3 courses of treatment
  Total effective rate (%): 64%
[1]
  Effective (case): 22 case
  Ineffective (case): 18 case
  Markedly effective (case): 10 case
Fib, patients, after 3 courses of treatment
  Blood coagulation factor I: 3.88 ± 0.48 g/L
hemoglobin, patients, after 3 courses of treatment
  Hb: 82.4 ± 9.5 g/L
patients, 24 h urine protein, after 3 courses of treatment
  Urine protein: 2.78 ± 1.59 g/24 h
[2]
  Blood usea nitrogen: 16.0 ± 6.4 mmol/L
  SCr: 298.5 ± 76.8 µmol/L
  Whole blood viscosity: 4.98 ± 1.0
Plasma albumin, patients, after 3 courses of treatment
  Alb: 30.4 ± 3.0 g/L
